The values below come from patent publication US6350742B1, “Compositions and methods for treating infections of the ear” (Carter-Wallace, Inc., priority 1998, dated 2002).

The nature of data set [1]: pH of a saturated solution in deionized water. The format is physicochemical.
The conditions of data set [2]: cited from earlier work.
A short description of data set [3]: solubility in aqueous solutions and organic solvents. The format is physicochemical.
The nature of data set [4]: apparent partition coefficient between octanol and water. The format is physicochemical. The conditions noted are these: water buffered at pH 7.2.
Data set [5] can be described thus: stability in the solid state. The format is physicochemical. Particulars: stored at ambient conditions.
Data set [6] deals with antibiotic resistant strains of H.pylori, staphylococci, streptococci, enterococci. The data set can be described thus: activity against antibiotic resistant bacteria. Particulars: enterococci and other bacterial and nosocomial infections.
Data set [7] in a line: stability in aqueous solution. The format is physicochemical. The conditions noted are these: pre-packed and stored.
In data set [8] the test system is microbiota indigenous to the human ear. Nature of the data set: activity against microbiota of the ear.
The subject of a further data set is mice. The conditions noted are these: cited from earlier work.

Take `O=S1(=O)CCN(CN2CCS(=O)(=O)NC2)CN1` [Taurolidine, 4,4′-methylenebis (tetrahydro-1,2,4-thiadiazine)-1,1,1′,1′ tetraoxide]: the “pH of saturated solution” value in [1] is on record as 7.4. Also, the “cumulative dose shown to be safe and well tolerated” value in [2] (cumulative doses) is “exceeding 300 g”. For the same molecule, the “systemic dose shown to be safe and well tolerated” value in data set [2] (systemic doses) is reported as “exceeding 40 g/day”. For the same molecule, the solubility result in data set [3] (CHCl3) was “insoluble”; in data set [3] (Dilute HCl), “soluble”; in data set [3] (Dilute NaOH), “soluble”; in data set [3] (EtOH), “sparingly soluble”; in data set [3] (Water, 20° C.), 1% at 20 °C. Besides, in [4], the “apparent partition coefficient between octanol and water” value is on record as “approximately 0.13”. The “stability in the solid state” value in data set [5] is reported as “acceptable stability in the solid state”. In addition, the “effect on antibiotic resistant strains” value in [6] is listed as “destroys antibiotic resistant strains”. For the same molecule, in [7], the “stability in aqueous solution” value is reported as “stored over relatively long periods”. Besides, the “effect on growth of microbiota indigenous to the human ear” value in data set [8] is recorded as “eradicates or controls the growth”. For the same molecule, the teratogenicity entry in the data set with mice is “non-teratogenic”.
